# Measured values: US10829520B2, “Beta-hairpin peptidomimetics” (POLYPHOR AG, priority 2015, dated 2020)
# Like-named read-outs stand apart in the source and are kept apart here. Where a SMILES comes first, the peptide text is derived from it. Bridges are numbered along the chain shown (N, C = ends). [ ]: non-standard residue; d: D form. Ala(cPent) = N[C@@H](CC1CCCC1)C(=O)O; Tle = CC(C)(C)[C@H](N)C(=O)O; dNle = CCCC[C@@H](N)C(=O)O; dDab = NCC[C@@H](N)C(=O)O; Nle = CCCC[C@H](N)C(=O)O; Orn = NCCC[C@H](N)C(=O)O; Dab = NCC[C@H](N)C(=O)O; Sar = CNCC(=O)O
# Columns and labels:
# Format in all cases: cell-based
# [1] = tested on: human red blood cells (hRBC); assay: Hemolysis of human red blood cells; conditions: red cells of human, 1 h
# Protocol: (§1) Lyophilized peptides were weighed on a Microbalance (Mettler MT5) and dissolved in sterile water to a final concentration of 1 mg/mL. Stock solutions were kept at +4° C., light protected.
# The peptides were tested for their hemolytic activity against human red blood cells (hRBC). Fresh hRBC were washed three times with phosphate buffered saline (PBS) and centrifuged for 10 min at 2000×g. Compounds (100 μg/mL) were incubated with 20% hRBC (v/v) for 1 h at 37° C. and shaking at 300 rpm. The final erythrocyte concentration was approximately 0.9×10^9 cells/mL. A value of 0% and 100% cell lyses, respectively, was determined by incubation of hRBC in the presence of PBS containing 0.001% acetic acid and 2.5% Triton X-100 in H2O, respectively. The samples were centrifuged, the supernatants were 8-fold diluted in PBS buffer and the optical densities (OD) were measured at 540 nm. The 100% lyses value (OD540H2O) gave an OD540 of approximately 0.5-1.0.
# Percent hemolysis was calculated as follows: (OD540peptide/OD540H2O)×100%.
# [2] = tested on: Pseudomonas aeruginosa ATCC 27853; conditions: ATCC 27853
# Protocol: as §1
# (§2) The in vitro antimicrobial activities of the peptides were determined in 96-well plates (Greiner, polystyrene) by the standard CLSI broth microdilution method (Clinical and Laboratory Standards Institute 2014. Performance standards for antimicrobial susceptibility testing, 24th informational supplement. Approved standard CLSI M100-S24; Clinical and Laboratory Standards Institute, Wayne, Pa.). Inocula of the microorganisms were diluted into Mueller-Hinton II (MH-cation adjusted) broth and compared with a 0.5 McFarland standard to give appr. 10^6 colony forming units (CFU)/mL. Aliquots (90 μL) of inoculate were added to 10 μL of MH-II broth+P-80 (Polysorbate 80, 0.002% final concentration, v/v) containing the peptide in serial two-fold dilutions. The following microorganisms were used to determine antibiotic activity of the peptides: Escherichia coli ATCC 25922, Klebsiella pneumoniae SSI #3010^a), Acinetobacter baumannii DSM 30008, Pseudomonas aeruginosa ATCC 27853 and the clinical isolates Escherichia coli 926415^b), Klebsiella pneumoniae 968733^b) and Acinetobacter baumannii 872842^b). Antimicrobial activities of the peptides were expressed as the minimal inhibitory concentration (MIC) in μg/mL at which no visible growth was observed after 18-20 hours of incubation at 35° C. ^a) Obtained from Statens Serum Institut (SSI), Copenhagen, Denmark^b) Obtained from International Health Management Associates, Inc. (IHMA Europe Sàrl), Epalinges, Switzerland
# [3] = tested on: Klebsiella pneumoniae SSI #3010; conditions: SSI #3010
# Protocol: as §1, §2
# [4] = tested on: Escherichia coli ATCC 25922; conditions: ATCC 25922
# Protocol: as §1, §2
# [5] = tested on: Acinetobacter baumannii DSM 30008; conditions: DSM 30008
# Protocol: as §1, §2
# [6] = tested on: Acinetobacter baumannii 872842; conditions: clinical isolate, Mueller-Hinton II broth
# Protocol: as §1, §2
# [7] = tested on: Escherichia coli 926415; conditions: clinical isolate, Mueller-Hinton II broth
# Protocol: as §1, §2
# [8] = tested on: Klebsiella pneumoniae 968733; conditions: clinical isolate, Mueller-Hinton II broth
# Protocol: as §1, §2
compound,measurement,setting,value
CC(C)C[C@@H]1NC(=O)[C@@H](CC(C)C)NC(=O)[C@H](CCN)NC(=O)[C@@H](NC(=O)[C@H](CCN)NC(=O)[C@@H](NC(=O)[C@H](CCN)NC(=O)CN(C)C(=O)[C@@H]2CSSC[C@H](NC(=O)[C@@H](N)Cc3c[nH]c4ccccc34)C(=O)N[C@@H](C(C)C)C(=O)N[C@@H](C)C(=O)N[C@@H](CO)C(=O)N3CCC[C@@H]3C(=O)N3CCC[C@H]3C(=O)N[C@@H](CC(C)C)C(=O)N[C@@H](CO)C(=O)N[C@@H](Cc3ccc(O)cc3)C(=O)N2)[C@@H](C)O)CCNC(=O)[C@H](CCCNC(=N)N)NC(=O)[C@H](CCN)NC(=O)[C@H](CCN)NC1=O [Ex. 181] (H-WCVAS[dP]PLSYC[Sar][Dab]T[Dab][Dab][Dab][dL]L[Dab][Dab]R; disulfide 2-11; lactam 16-C),Hemolysis at 100 μg/mL,[1]; 100 μg/mL,<1%
same,Pseudomonas aeruginosa ATCC 27853 MIC,[2],0.5 mg/L
same,Klebsiella pneumoniae SSI #3010 MIC,[3],0.125 mg/L
same,Escherichia coli ATCC 25922 MIC,[4],0.0625 mg/L
same,Acinetobacter baumannii DSM 30008 MIC,[5],0.125 mg/L
CC(C)C[C@@H]1NC(=O)[C@@H](CC(C)C)NC(=O)[C@H](CCN)NC(=O)[C@@H](NC(=O)[C@H](CCN)NC(=O)[C@@H](NC(=O)[C@H](CCN)NC(=O)CN(C)C(=O)[C@@H]2CSSC[C@H](NC(=O)[C@@H](N)Cc3c[nH]c4ccccc34)C(=O)N[C@@H](C(C)C)C(=O)N[C@@H](C)C(=O)N[C@@H](CO)C(=O)N3CCC[C@@H]3C(=O)N3CCC[C@H]3C(=O)N[C@@H](CC(C)C)C(=O)N[C@@H](CO)C(=O)N[C@@H](Cc3ccc(O)cc3)C(=O)N2)[C@@H](C)O)CCNC(=O)[C@@H](CCCNC(=N)N)NC(=O)[C@H](CCN)NC(=O)[C@H](CCN)NC1=O [Ex. 182] (H-WCVAS[dP]PLSYC[Sar][Dab]T[Dab][Dab][Dab][dL]L[Dab][Dab][dR]; disulfide 2-11; lactam 16-C),Hemolysis at 100 μg/mL,[1]; 100 μg/mL,1%
same,Pseudomonas aeruginosa ATCC 27853 MIC,[2],4 mg/L
same,Klebsiella pneumoniae SSI #3010 MIC,[3],0.5 mg/L
same,Escherichia coli ATCC 25922 MIC,[4],0.5 mg/L
same,Acinetobacter baumannii DSM 30008 MIC,[5],0.75 mg/L
CC(C)C[C@@H]1NC(=O)[C@@H](Cc2ccccc2)NC(=O)[C@H](CCN)NC(=O)[C@@H](NC(=O)[C@H](CCN)NC(=O)[C@H](CCCN)NC(=O)[C@@H]2CSSC[C@H](NC(=O)[C@H](Cc3c[nH]c4ccccc34)NC(=O)CN)C(=O)N[C@@H](C(C)(C)C)C(=O)N[C@@H](C)C(=O)N[C@@H](CO)C(=O)N3CCC[C@@H]3C(=O)N3CCC[C@H]3C(=O)N[C@@H](CC3CCCC3)C(=O)N[C@@H](CO)C(=O)N[C@@H](Cc3ccc(O)cc3)C(=O)N2)CCNC(=O)[C@H]([C@@H](C)O)NC(=O)[C@H](CCN)NC(=O)[C@H](CCN)NC1=O [Ex. 183] (H-GWC[Tle]AS[dP]P[Ala(cPent)]SYC[Orn][Dab][Dab][Dab][dF]L[Dab][Dab]T; disulfide 3-12; lactam 15-C),Hemolysis at 100 μg/mL,[1]; 100 μg/mL,2%
same,Pseudomonas aeruginosa ATCC 27853 MIC,[2],0.5 mg/L
same,Klebsiella pneumoniae SSI #3010 MIC,[3],0.125 mg/L
same,Escherichia coli ATCC 25922 MIC,[4],0.125 mg/L
same,Acinetobacter baumannii DSM 30008 MIC,[5],0.25 mg/L
"CCCC[C@@H]1NC(=O)[C@@H]2CCCN2C(=O)[C@H]2CCCN2C(=O)[C@H](CO)NC(=O)[C@H](C)NC(=O)[C@H](C(C)(C)C)NC(=O)[C@@H](NC(=O)[C@@H](N)Cc2c[nH]c3ccccc23)CCNC(=O)C[C@@H](C(=O)N[C@@H](CCCN)C(=O)N[C@@H](CCN)C(=O)N[C@H]2CCNC(=O)[C@H]([C@@H](C)O)NC(=O)[C@H](CCN)NC(=O)[C@H](CCN)NC(=O)[C@H](CC(C)C)NC(=O)[C@@H](Cc3ccccc3)NC(=O)[C@H](CCN)NC2=O)NC(=O)[C@H](Cc2ccc(O)cc2)NC(=O)[C@H](CO)NC1=O [Ex. 190] (H-W[Dab][Tle]AS[dP]P[Nle]SYD[Orn][Dab][Dab][Dab][dF]L[Dab][Dab]T; lactam 2-11, 14-C)",Hemolysis at 100 μg/mL,[1]; 100,<1%
same,Pseudomonas aeruginosa ATCC 27853 MIC,[2],1 mg/L
same,Klebsiella pneumoniae SSI #3010 MIC,[3],0.5 mg/L
same,Escherichia coli ATCC 25922 MIC,[4],0.5 mg/L
same,Acinetobacter baumannii DSM 30008 MIC,[5],0.5 mg/L
CCCC[C@@H]1NC(=O)[C@@H]2CCCN2C(=O)[C@H]2CCCN2C(=O)[C@H](CO)NC(=O)[C@H](C)NC(=O)[C@H](C(C)(C)C)NC(=O)[C@@H](NC(=O)[C@@H](N)Cc2c[nH]c3ccccc23)CSSC[C@@H](C(=O)N[C@@H](CCCN)C(=O)N[C@@H](CCN)C(=O)N[C@H]2CCNC(=O)[C@H]([C@@H](C)O)NC(=O)[C@H](CCN)NC(=O)[C@H](CCN)NC(=O)[C@H](CC(C)C)NC(=O)[C@@H](CCCC)NC(=O)[C@H](CCN)NC2=O)NC(=O)[C@H](Cc2ccc(O)cc2)NC(=O)[C@H](CO)NC1=O [Ex. 192] (H-WC[Tle]AS[dP]P[Nle]SYC[Orn][Dab][Dab][Dab][dNle]L[Dab][Dab]T; disulfide 2-11; lactam 14-C),Hemolysis at 100 μg/mL,[1]; 100 μg/mL,5%
same,Pseudomonas aeruginosa ATCC 27853 MIC,[2],2 mg/L
same,Klebsiella pneumoniae SSI #3010 MIC,[3],0.25 mg/L
same,Escherichia coli ATCC 25922 MIC,[4],0.25 mg/L
same,Acinetobacter baumannii DSM 30008 MIC,[5],0.25 mg/L
CCCC[C@@H]1NC(=O)[C@@H]2CCCN2C(=O)[C@H]2CCCN2C(=O)[C@H](CO)NC(=O)[C@H](C)NC(=O)[C@H](C(C)(C)C)NC(=O)[C@H](CCN)NC(=O)[C@H](Cc2c[nH]c3ccccc23)NC(=O)[C@@H](N)CSSC[C@@H](C(=O)N[C@H](CCN)C(=O)N[C@H]2CCNC(=O)[C@H]([C@@H](C)O)NC(=O)[C@H](CCN)NC(=O)[C@H](CCN)NC(=O)[C@H](CC(C)C)NC(=O)[C@@H](CC(C)C)NC(=O)[C@H](CCN)NC2=O)NC(=O)[C@H](CCCN)NC(=O)[C@H](CCN)NC(=O)[C@H](Cc2ccc(O)cc2)NC(=O)[C@H](CO)NC1=O [Ex. 195] (H-CW[Dab][Tle]AS[dP]P[Nle]SY[Dab][Orn]C[dDab][Dab][Dab][dL]L[Dab][Dab]T; disulfide 1-14; lactam 16-C),Hemolysis at 100 μg/mL,[1]; 100 μg/mL,<1%
same,Pseudomonas aeruginosa ATCC 27853 MIC,[2],1 mg/L
same,Klebsiella pneumoniae SSI #3010 MIC,[3],0.125 mg/L
same,Escherichia coli ATCC 25922 MIC,[4],0.125 mg/L
same,Acinetobacter baumannii DSM 30008 MIC,[5],0.5 mg/L
CC(C)C[C@@H]1NC(=O)[C@@H](CC(C)C)NC(=O)[C@H](CCN)NC(=O)[C@@H](NC(=O)[C@@H](CCN)NC(=O)[C@@H]2CSSC[C@H](N)C(=O)N[C@@H](Cc3c[nH]c4ccccc34)C(=O)N[C@@H](CCN)C(=O)N[C@@H](C(C)(C)C)C(=O)N[C@@H](C)C(=O)N[C@@H](CO)C(=O)N3CCC[C@@H]3C(=O)N3CCC[C@H]3C(=O)N[C@@H](CC(C)C)C(=O)N[C@@H](CO)C(=O)N[C@@H](Cc3ccc(O)cc3)C(=O)N[C@@H](CCN)C(=O)N(C)CC(=O)N2)CCNC(=O)[C@H]([C@@H](C)O)NC(=O)[C@H](CCN)NC(=O)[C@H](CCN)NC1=O [Ex. 206] (H-CW[Dab][Tle]AS[dP]PLSY[Dab][Sar]C[dDab][Dab][Dab][dL]L[Dab][Dab]T; disulfide 1-14; lactam 16-C),Hemolysis at 100 μg/mL,[1]; 100 μg/mL,1%
same,Pseudomonas aeruginosa ATCC 27853 MIC,[2],4 mg/L
same,Klebsiella pneumoniae SSI #3010 MIC,[3],1 mg/L
same,Escherichia coli ATCC 25922 MIC,[4],0.5 mg/L
same,Acinetobacter baumannii DSM 30008 MIC,[5],4 mg/L
colistin [reference compound],Acinetobacter baumannii 872842 MIC,[6]; P-80 0.002% present,>8 mg/L
same,Acinetobacter baumannii 872842 MIC,[6]; measured in absence of P-80,64 mg/L
same,Escherichia coli 926415 MIC,[7]; P-80 0.002% present,8 mg/L
same,Escherichia coli 926415 MIC,[7]; measured in absence of P-80,16 mg/L
same,Klebsiella pneumoniae 968733 MIC,[8]; P-80 0.002% present,>8 mg/L
same,Klebsiella pneumoniae 968733 MIC,[8]; measured in absence of P-80,16 mg/L
